Test results published in ChEMBL document CHEMBL1201862, “PubChem BioAssay data set” (2004).
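Exposure lasted 48 hours, with cells grown in 96-well plates and compounds tested at five concentrations. The concentration for 50% growth inhibition is given as GI50.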 Calls of active or inactive are those of the source. Rule as the data show it: active = GI50 up to about 1.1 µM and inactive = higher.

Legend:
Assay in all cases: NCI anticancer screen, dose series, 48 h
[1] = test system: A498
[2] = test system: NCI-H226
[3] = test system: SK-MEL-28
[4] = test system: UACC-257
[5] = test system: A549
[6] = test system: RXF 631
[7] = test system: SNB-19
[8] = test system: SF-539
[9] = test system: SNB-78
[10] = test system: EKVX
[11] = test system: SR
[12] = test system: CAKI-1
[13] = test system: HOP-18
[14] = test system: M14
[15] = test system: KM12
[16] = test system: HT-29
[17] = test system: NCI-H522
[18] = test system: IGROV-1
[19] = test system: SK-OV-3
[20] = test system: HOP-62
[21] = test system: TK-10
[22] = test system: MOLT-4
[23] = test system: SW-620
[24] = test system: HCT-116
[25] = test system: DLD-1
[26] = test system: SF-295
[27] = test system: HOP-92
[28] = test system: RXF 393
[29] = test system: LOX IMVI
[30] = test system: DMS-114
[31] = test system: SK-MEL-2
[32] = test system: DMS-273
[33] = test system: K562
[34] = test system: UACC-62
[35] = test system: HCC 2998
[36] = test system: 786-0
[37] = test system: OVCAR-8
[38] = test system: KM-20L2
[39] = test system: LXFL 529
[40] = test system: SN12C
[41] = test system: SF-268
[42] = test system: CCRF-CEM
[43] = test system: COLO 205
[44] = test system: HCT-15
[45] = test system: Malme-3M
[46] = test system: NCI-H23
[47] = test system: UO-31
[48] = test system: OVCAR-5
[49] = test system: OVCAR-3
[50] = test system: NCI-H460
[51] = test system: RPMI-8226
[52] = test system: ACHN
[53] = test system: OVCAR-4
[54] = test system: M19-MEL
[55] = test system: SK-MEL-5
[56] = test system: U-251
[57] = test system: SNB-75
[58] = test system: HL-60
[59] = test system: XF498

In the case of `O=C(CO)CC(=O)C(=O)Nc1nc([N+](=O)[O-])cs1`, the GI50 [1] is reported as > 100 µM (inactive), the GI50 [2] is reported as > 100 µM (inactive) and the GI50 [3] is reported as > 100 µM (inactive). For the same molecule, the GI50 [4] was > 100 µM (inactive), the GI50 [5] was > 100 µM (inactive) and the GI50 [6] was > 100 µM (inactive). For the same molecule, the GI50 [7] was > 100 µM (inactive), the GI50 [8] was > 100 µM (inactive) and the GI50 [9] was > 100 µM (inactive). The GI50 [10] was > 100 µM (inactive), the GI50 [11] was > 100 µM (inactive) and the GI50 [12] was > 100 µM (inactive). The GI50 [13] was > 100 µM (inactive), the GI50 [14] was > 100 µM (inactive) and the GI50 [15] was > 100 µM (inactive). For the same molecule, the GI50 [16] was > 100 µM (inactive), the GI50 [17] was > 100 µM (inactive) and the GI50 [18] was > 100 µM (inactive). The GI50 [19] was > 100 µM (inactive), the GI50 [20] was > 100 µM (inactive) and the GI50 [21] was > 100 µM (inactive). The GI50 [22] was > 100 µM (inactive), the GI50 [23] was > 100 µM (inactive) and the GI50 [24] was > 100 µM (inactive). The GI50 [25] was > 100 µM (inactive), the GI50 [26] was > 100 µM (inactive) and the GI50 [27] was > 10 µM (inactive). The GI50 [28] was > 100 µM (inactive), the GI50 [29] was > 100 µM (inactive) and the GI50 [30] was > 100 µM (inactive). The GI50 [31] was > 100 µM (inactive), the GI50 [32] was > 100 µM (inactive) and the GI50 [33] was > 100 µM (inactive). For the same molecule, the GI50 [34] was > 100 µM (inactive), the GI50 [35] was > 100 µM (inactive) and the GI50 [36] was > 100 µM (inactive). The GI50 [37] was > 100 µM (inactive), the GI50 [38] was > 100 µM (inactive) and the GI50 [39] was > 100 µM (inactive). The GI50 [40] was > 100 µM (inactive), the GI50 [41] was > 100 µM (inactive) and the GI50 [42] was > 100 µM (inactive). For the same molecule, the GI50 [43] was > 100 µM (inactive), the GI50 [44] was > 100 µM and the GI50 [45] was > 100 µM (inactive). For the same molecule, the GI50 [46] was > 100 µM (inactive), the GI50 [47] was > 100 µM (inactive) and the GI50 [48] was > 100 µM (inactive). For the same molecule, the GI50 [49] was > 100 µM (inactive), the GI50 [50] was > 100 µM (inactive) and the GI50 [51] was > 100 µM (inactive). The GI50 [52] was > 100 µM (inactive), the GI50 [53] was > 100 µM (inactive) and the GI50 [54] was > 100 µM (inactive). The GI50 [55] was > 100 µM (inactive), the GI50 [56] was > 100 µM (inactive) and the GI50 [57] was 55.1 µM (inactive). For the same molecule, the GI50 [58] was > 100 µM (inactive).

With `COc1ccc(OC)c2[nH]c(Sc3c([N+](=O)[O-])ncn3C)nc12` the GI50 [1] was 31 µM (inactive), the GI50 [2] was 14.2 µM (inactive) and the GI50 [3] was 24.3 µM (inactive). The GI50 [4] was 15.3 µM (inactive), the GI50 [5] was 33.7 µM (inactive) and the GI50 [6] was 18.5 µM (inactive). The GI50 [7] was > 10 µM (inactive), the GI50 [8] was 18 µM (inactive) and the GI50 [9] was 20.9 µM (inactive). For the same molecule, the GI50 [10] was 23.1 µM (inactive), the GI50 [12] was 17.1 µM (inactive) and the GI50 [14] was 20.3 µM (inactive). The GI50 [15] was 43.1 µM (inactive), the GI50 [16] was 28.4 µM (inactive) and the GI50 [18] was 24.2 µM (inactive). For the same molecule, the GI50 [19] was 35.2 µM (inactive), the GI50 [20] was > 100 µM (inactive) and the GI50 [21] was 23.6 µM (inactive). For the same molecule, the GI50 [23] was 24.5 µM (inactive), the GI50 [24] was 21.7 µM (inactive) and the GI50 [25] was 20.6 µM (inactive). For the same molecule, the GI50 [26] was 41.8 µM (inactive), the GI50 [27] was 16.9 µM (inactive) and the GI50 [28] was 25.2 µM (inactive). The GI50 [29] was 79.1 µM (inactive), the GI50 [30] was 17.4 µM (inactive) and the GI50 [32] was 11.8 µM (inactive). For the same molecule, the GI50 [34] was 18.5 µM (inactive), the GI50 [35] was 20.3 µM (inactive) and the GI50 [36] was 29.3 µM (inactive). The GI50 [37] was 17.6 µM (inactive), the GI50 [38] was 20.4 µM (inactive) and the GI50 [39] was 13 µM (inactive). For the same molecule, the GI50 [40] was 19.9 µM (inactive), the GI50 [41] was 26.5 µM (inactive) and the GI50 [43] was 11.6 µM (inactive). For the same molecule, the GI50 [44] was 16 µM, the GI50 [59] was 17.3 µM (inactive) and the GI50 [45] was 13.5 µM (inactive). The GI50 [46] was 17.5 µM (inactive), the GI50 [47] was 28.6 µM (inactive) and the GI50 [48] was 94.6 µM (inactive). The GI50 [49] was 16.8 µM (inactive), the GI50 [50] was 38.1 µM (inactive) and the GI50 [52] was 27.8 µM (inactive). For the same molecule, the GI50 [53] was 22.9 µM (inactive), the GI50 [54] was 20.6 µM (inactive) and the GI50 [55] was 17.6 µM (inactive). The GI50 [56] was 28.9 µM (inactive) and the GI50 [57] was 30.8 µM (inactive).
